Reference: PubChem BioAssay AID1919001 (Molecular Pharmacology Branch, DTP, NCI, 2023)
Values joined by “and” are separate entries in the source; they are usually repeats but may differ in a detail not shown here. Equal values may be shown once.

System: 699152-130-R-J1-PDC complex spheroid growth
Assay: Anticancer human tumor 699152-130-R-J1-PDC patient-derived pancreatic carcinoma cell line growth inhibition [AhR]
Settings: for viability, T/C: stronger effect = lower value
Source text: Multicellular complex tumor spheroid response to aryl hydrocarbon receptor antagonists in combination with a variety of drugs and investigational agents in selected tumor cell lines
The current study was undertaken to assess response to aryl hydrocarbon receptor antagonists in combination with standard-of-care drugs and investigational agents in solid tumor complex spheroid models. Complex spheroids include a stromal component modeled by human endothelial cells (HUVEC) and fibroblasts modeled by human mesenchymal stem cells (MSCs). The concentration ranges selected for each drug and investigational agent were based upon clinically achievable concentrations if the clinical Cmax of the agent was known.
Compounds. The drugs and investigational agents: BAY 2416964 (NSC825713), GNF351 (NSC835774), CH-223191 (NSC835775), CPI-455 (NSC825282), aza-TdCyd (NSC777586), decitabine (NSC127716), belinostat (NSC758774), entinostat (NSC756642), pevonedistat (NSC761192), tazemetostat (NSC777109), talazoparib (NSC765396), olaparib (NSC753686), selinexor (NSC780203), nedisertib (M3814, NSC802822), bortezomib (NSC756655), venetoclax (NSC766270), doxorubicin (NSC123127), elimusertib (BAY189344, NSC800525), ceralasertib (AZD6738, NSC777638), TAK-243 (NSC785004), alisertib (NSC759677), etoposide (NSC141540), topotecan (NSC609699), eribulin (NSC707389), gemcitabine (NSC613327), carboplatin (NSC241240), cisplatin (NSC119875), and SN-38 (NSC673596) were obtained from the National Cancer Institute (NCI) Developmental Therapeutics Program Chemical Repository (32). The FDA-approved anticancer drug set is available from the Developmental Therapeutics Program at https://dtp.cancer.gov/organization/dscb/obtaining/available plates.htm. […] The stock solutions were prepared in dimethyl sulfoxide (DMSO, Sigma-Aldrich, St. Louis, MO, cat. D2650), except for the platinum compounds which were prepared in saline (Quality Biological, Gaithersburg, MD, cat. 114-055-101), at 800-fold the tested concentration and stored at -70 degrees C prior to their use. All drugs and investigational agents were tested over a range starting from a high concentration at or near the clinical Cmax and decreasing in half-log increments. If the clinical Cmax for an agent had not been determined, the highest concentration tested was 10 microM (Table 1).
Cell Culture. All cells were maintained in an incubator at 37 degrees C and 5% CO2 with 95% humidity. The PDC lines were cultured according to standard operating procedures established by the NCI PDMR (https://pdmr.cancer.gov). Briefly, all PDCs were thawed and cultured in Matrigel-coated flasks prepared with a working solution of 1X Ham's F-12 nutrient mix, without supplementation (Invitrogen, Waltham, MA, cat. 11765054), 100 U/mL penicillin-streptomycin (Invitrogen, cat. 15140122), and 2.5% Matrigel (Corning Inc., Corning, NY, cat. 354248) for the first three passages. All PDCs were cultured in complete DMEM/F-12 media containing advanced DMEM/F-12 (Invitrogen, cat. 12634028), 4.9% defined fetal bovine serum, heat inactivated (HyClone Laboratories Inc., Logan, UT, cat. SH30070.03HI), 389 ng/mL hydrocortisone (Sigma-Aldrich, cat. H4001), 9.7 ng/mL human EGF recombinant protein (Invitrogen, cat. PHG0313), 23.4 microg/mL adenine (Sigma-Aldrich, cat. A2786), 97.3 U/mL penicillin-streptomycin (Invitrogen, cat. 15140122), 1.9 mM L-glutamine (Invitrogen, cat. 25030081), and 9.7 microM Y-27632 dihydrochloride (Tocris Bioscience, Bristol, United Kingdom, cat. 1254). The PDCs were cultured in complete DMEM/F12 media without 10 microM Y-27632 dihydrochloride for at least two passages prior to the screen. The established cell lines NCI-H1341 and […] were cultured in DMEM/F-12, HEPES (Invitrogen, cat. 11330032), 5% defined fetal bovine serum (HyClone Laboratories Inc., cat. SH30070.03), ITS premix universal culture supplement [insulin (5 microg/mL), transferrin (5 microg/mL), and selenious acid (5 ng/mL)] […]
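Note: compound exposure lasted 7 days after spheroids had grown for 3 days.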

SMILES: CC(C)CC(NC(=O)C(Cc1ccccc1)NC(=O)c1cnccn1)B(O)O (configuration not stated)
- viability, T/C (compound 0.000949 µM): 107% and 97.5% and 95.3%
- viability, T/C (compound 0.003 µM): 107% and 101% and 94.5%
- viability, T/C (compound 0.00949 µM): 99.3% and 79% and 30.8%
- viability, T/C (compound 0.03 µM): 1.12% and 0.95% and 0.7%
- viability, T/C (compound 0.0949 µM): 0.51% and 0.48% and 0.69%
- viability, T/C (compound 0.3 µM): 0.46% and 0.87% and 0.49%
- IC50 (curve of compound): 16.9 nM and 14.5 nM and 6.7 nM

SMILES: CC(C)c1c(-c2ccccc2)nc2c(C#N)c[nH]n2c1=O
- viability, T/C (compound 0.0316 µM): 108% and 92.1% and 105%
- viability, T/C (compound 0.1 µM): 102% (2×) and 87.1%
- viability, T/C (compound 0.316 µM): 109% and 90% and 107%
- viability, T/C (compound 1 µM): 97.5% and 90.3% and 96%
- viability, T/C (compound 3.16 µM): 112% and 104% and 99.7%
- viability, T/C (compound 10 µM): 107% and 88.4% and 99.3%
- IC50 (curve of compound): > 10000 nM

SMILES: CC(CO)NC(=O)c1cc(-c2ccc(Cl)cc2)nn(-c2cnn(C)c2)c1=O (configuration not stated)
- viability, T/C (compound 0.1 µM): 92.1% [middle of 21 runs]
- IC50 (compound alone, run of 07/12/2022): > 10000 nM

SMILES: CC1(C)CCC(CN2CCN(c3ccc(C(=O)NS(=O)(=O)c4ccc(NCC5CCOCC5)c([N+](=O)[O-])c4)c(Oc4cnc5[nH]ccc5c4)c3)CC2)=C(c2ccc(Cl)cc2)C1
- viability, T/C (compound 0.0316 µM): 99.2% and 99% and 94.1%
- viability, T/C (compound 0.1 µM): 122% and 97.6% and 103%
- viability, T/C (compound 0.316 µM): 110% and 102% (2×)
- viability, T/C (compound 1 µM): 100% and 106% and 101%
- viability, T/C (compound 3.16 µM): 106% and 89.5% and 115%
- viability, T/C (compound 10 µM): 94% and 64.3% and 58.6%
- IC50 (curve of compound): > 10000 nM

SMILES: CC1COCCN1c1cc(-c2ccnn2C)c2ccnc(-c3ccn[nH]3)c2n1 (configuration not stated)
- viability, T/C (compound 0.00316 µM): 106% and 92.5% and 103%
- viability, T/C (compound 0.01 µM): 106% and 96.9% and 109%
- viability, T/C (compound 0.0316 µM): 95.6% and 95.9% and 92.5%
- viability, T/C (compound 0.1 µM): 85.9% and 90.6% and 95.9%
- viability, T/C (compound 0.316 µM): 72.5% and 84.8% and 77.6%
- viability, T/C (compound 1 µM): 59.9% and 58.5% and 61.5%
- IC50 (curve of compound): > 1000 nM

SMILES: CC1COCCN1c1cc(C2(S(C)(=N)=O)CC2)nc(-c2ccnc3[nH]ccc23)n1 (configuration not stated)
- viability, T/C (compound 0.0316 µM): 100% and 99.4% and 98.3%
- viability, T/C (compound 0.1 µM): 103% and 95.1% and 112%
- viability, T/C (compound 0.316 µM): 91.5% and 95.4% and 103%
- viability, T/C (compound 1 µM): 96.7% and 88.4% and 104%
- viability, T/C (compound 3.16 µM): 93% and 82.9% and 89.2%
- viability, T/C (compound 10 µM): 78% and 67.5% and 71.1%
- IC50 (curve of compound): > 10000 nM
